In PubChem BioAssay (NCI):
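Protocol summary: plate cells (96-well), add compound at 5 concentrations, incubate 48 h, interpolate endpoints linearly. The concentration for 50% growth inhibition is given as GI50. At the TGI there is no net growth.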 Where a SMILES comes first, the peptide text is derived from it. The star is where a group is joined. Boc = CC(C)(C)OC(=O)*

What was measured:
Assay in all cases: NCI-60 cell line screen, 48 h
[1] = system: 786-0 renal
[2] = system: BT-549 breast
[3] = system: MOLT-4 leukemia
[4] = system: NCI/ADR-RES ovarian
[5] = system: SF-295 CNS
[6] = system: SN12C renal
[7] = system: SW-620 colon
[8] = system: HL-60(TB) leukemia
[9] = system: MCF7 breast
[10] = system: NCI-H460 lung

| Compound | TGI [1] | TGI [2] | TGI [3] | TGI [4] | TGI [5] | TGI [6] | TGI [7] | TGI [8] | TGI [9] | TGI [10] | GI50 [8] | GI50 [3] |
| --- | --- | --- | --- | --- | --- | --- | --- | --- | --- | --- | --- | --- |
| Brc1ccc2c(c1)C1=C(CO2)Cc2ccccc2O1 | 43.7 µM | 33 µM | 66.1 µM | 58.3 µM | 35.4 µM | 33 µM | 66.4 µM | – | – | – | – | – |
| Nc1cc(CO)cc(Nc2c3ccccc3nc3occc23)c1 | 77.4 µM | 81.6 µM | 50.1 µM | 62.6 µM | > 100 µM | > 100 µM | – | 74.4 µM | 66 µM | 64.3 µM | – | – |
| CC(=O)Nc1ccc(Nc2nc(=O)[nH]c(=O)[nH]2)cc1 | > 100 µM | > 100 µM | – | > 100 µM | > 100 µM | > 100 µM | > 100 µM | > 100 µM | > 100 µM | > 100 µM | – | – |
| CCOC(=O)/C=C(/C(=O)OCC)n1cc(C)c(=O)n(Cc2cnnn2CCCCOC(C)=O)c1=O | 78.4 µM | 24.3 µM | 47.9 µM | 69.3 µM | > 100 µM | > 100 µM | > 100 µM | – | 32.5 µM | 71.5 µM | – | – |
| Cc1nnc2c3c(-c4ccccc4)c(-c4ccccc4)oc3nc(N(C)C)n12 | > 100 µM | – | > 100 µM | > 100 µM | > 100 µM | – | > 100 µM | 46.9 µM | > 100 µM | – | – | – |
| O=C(CSC1=NCCN1)c1ccccc1 | > 100 µM | > 100 µM | > 100 µM | > 100 µM | > 100 µM | > 100 µM | > 100 µM | – | > 100 µM | > 100 µM | – | – |
| CC(NC(=O)C(NC(=O)OC(C)(C)C)C(C)C)C(=O)NCC(=O)O (stereo not drawn) (Boc-Val-Ala-Gly-OH; configuration not given here) | > 100 µM | > 100 µM | > 100 µM | > 100 µM | > 100 µM | > 100 µM | > 100 µM | – | – | > 100 µM | – | – |
| COc1ccc(CNc2nc3ccccc3nc2-c2cccs2)cc1 | > 100 µM | 95.4 µM | 45.4 µM | > 100 µM | > 100 µM | – | > 100 µM | > 100 µM | > 100 µM | > 100 µM | – | – |
| O=C1NC(N2CCOCC2)=N/C1=C\c1ccccc1O | > 100 µM | – | > 100 µM | > 100 µM | > 100 µM | > 100 µM | > 100 µM | > 100 µM | > 100 µM | – | – | – |
| Cc1cc2ccccc2c[n+]1CC(=O)CC([O-])(C(F)(F)F)C(F)(F)F | > 100 µM | – | > 100 µM | > 100 µM | > 100 µM | > 100 µM | > 100 µM | > 100 µM | – | > 100 µM | – | – |
| NS(=O)(=O)c1ccc(/C=C/c2cccc(O)c2)cc1 | > 100 µM | – | > 100 µM | > 100 µM | > 100 µM | > 100 µM | > 100 µM | > 100 µM | > 100 µM | > 100 µM | 41.4 µM | 20 µM |
| C=C(Br)CN(C#N)CC(=C)Br | > 100 µM | – | > 100 µM | > 100 µM | > 100 µM | > 100 µM | > 100 µM | > 100 µM | > 100 µM | > 100 µM | – | – |
